Values after ≈ are worked out from the molar mass of the structure shown.
Columns and labels:
[1] = tested on: human hepatoma cell line Hep G2; details: cited from earlier work
[2] = conditions that elevate de novo lipogenesis; cited from earlier work
[3] = chronic administration; resting and exercising conditions; cited from earlier work
[4] = in vivo; cited from earlier work
[5] = kinetic study
From the text: This structure is like the soluble double metal HCA salts disclosed by Balasubramanyam et al., (U.S. Pat. No. 6,160,172, issued Dec. 12, 2000; U.S. Pat. No. 6,395,296, issued May 28, 2002).

[6] = Alcohol solubility (1% wt in 50% v/v ethanol); assay type: physicochemical; details: tested at 1% weight in 50% (v/v) ethanol solution
[7] = tested on: middle-aged rats fed a 30% fat diet; details: cited from earlier work

## O=C(O)CC(O)(C(=O)O)C(O)C(=O)O (single isomer, unassigned; (-)) [HCA, (−)-hydroxycitric acid]
[1]; 2.5 h and 18 h incubations, 0.5 mM or higher
  incorporation of [1,5-14C]citrate into fatty acids and cholesterol: strongly inhibited
[1]; incorporation of tritium from tritiated water
  Cholesterol biosynthesis, of the control value: 27%
[2]
  energy expenditure: increased
  fat synthesis: reduced
[3]
  respiratory exchange ratio: significantly lower
[4]
  appetite and satiety: promote appetite suppression and satiety

## O=C(O)CC(O)(C(=O)O)C(O)C(=O)O (centres unmarked) [K/Mg-HCA monomer]
[5]
  absorption compared to the dimer: less-absorbed
[6]
  Alcohol Solubility (50% v/v alcohol; 1% wt test): 40%
physchem
  solubility: 250 mg/mL (≈ 1200 mM)

## O=C([O-])CC(O)(C(=O)[O-])C(O)C(=O)[O-].[K+].[K+].[K+] (centres unmarked) [potassium HCA]
[7]
  fat as a percentage of body weight: reducing
  protein as a percentage of body weight: increased

Source: patent publication US8367864B2, “Dimeric double metal salts of (−)-hydroxycitric acid, methods of making and uses of same” (Glykon Technologies Group, LLC, priority 2006, dated 2013)
